Literature values as cited in patent publication US20210379148A1, “REGULATING MUSCLE PHYSIOLOGY AND ENERGY METABOLISM USING CRYM” (University Of Maryland, Baltimore, priority 2020, published 2021).

Target: thyroid hormone receptors (TR) α and β
Settings: read-out: KD, binding to thyroid hormone receptors (TR) α and β

| SMILES | Kd [nM] |
| --- | --- |
| N[C@@H](Cc1cc(I)c(Oc2cc(I)c(O)c(I)c2)c(I)c1)C(=O)O [T4] | 2 |

Target: μ-crystallin ketimine reductase (Homo sapiens, UniProt Q14894)
Settings: read-out: K1, inhibition of μ-crystallin's activity as a ketimine reductase

Chain of μ-crystallin ketimine reductase (Q14894 whole entry): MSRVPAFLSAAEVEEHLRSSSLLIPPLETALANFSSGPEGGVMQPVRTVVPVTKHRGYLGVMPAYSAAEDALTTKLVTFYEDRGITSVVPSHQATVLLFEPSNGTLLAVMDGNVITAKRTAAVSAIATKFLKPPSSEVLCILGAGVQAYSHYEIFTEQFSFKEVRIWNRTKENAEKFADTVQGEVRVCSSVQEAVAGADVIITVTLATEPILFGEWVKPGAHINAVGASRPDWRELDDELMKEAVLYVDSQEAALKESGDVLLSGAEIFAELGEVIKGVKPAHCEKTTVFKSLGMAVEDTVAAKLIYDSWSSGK

| SMILES | Ki [nM] |
| --- | --- |
| N[C@@H](Cc1cc(I)c(Oc2cc(I)c(O)c(I)c2)c(I)c1)C(=O)O [T4] | 0.75 |

Test system: CRYM mRNA
Settings: not given

| SMILES | expression of CRYM mRNA |
| --- | --- |
| C[C@]12CCC(=O)C[C@@H]1CC[C@@H]1[C@@H]2CC[C@]2(C)[C@@H](O)CC[C@@H]12 [Dihydrotestosterone] | Dihydrotestosterone results in increased expression of CRYM |
| [K+].[K+].[O]=[Cr](=[O])([O-])[O][Cr](=[O])(=[O])[O-] [Potassium Dichromate] | Potassium Dichromate results in increased expression of |

Same assay, conditions: Methionine deficiency co-treated with Choline deficiency co-treated with Folic Acid deficiency

| SMILES | expression of CRYM mRNA |
| --- | --- |
| CSCC[C@H](N)C(=O)O [Methionine] | treated with Folic Acid deficiency] results in increased |
| Nc1nc2ncc(CNc3ccc(C(=O)N[C@@H](CCC(=O)O)C(=O)O)cc3)nc2c(=O)[nH]1 [Folic Acid] | treated with Folic Acid deficiency] results in increased |

Same assay, conditions: NOG protein co-treated with entinostat, dorsomorphin and 4-(5-benzo(1,3)dioxol-5-yl-4-pyridin-2-yl-1H-imidazol-2-yl)benzamide

| SMILES | expression of CRYM mRNA |
| --- | --- |
| NC(=O)c1ccc(-c2nc(-c3ccccn3)c(-c3ccc4c(c3)OCO4)[nH]2)cc1 [4-(5-benzo(1,3)dioxol-5-yl-4-pyridin-2-yl-1H-imidazol-2-yl)benzamide] | pyridin-2-yl-1H-imidazol-2-yl)benzamide] results in increased |
| Nc1ccccc1NC(=O)c1ccc(CNC(=O)OCc2cccnc2)cc1 [entinostat] | pyridin-2-yl-1H-imidazol-2-yl)benzamide] results in increased |

Same assay, conditions: Oxaliplatin co-treated with Topotecan

| SMILES | expression of CRYM mRNA |
| --- | --- |
| O=C1[O][Pt]2([NH][C@@H]3CCCC[C@H]3[NH]2)[O]C1=O [Oxaliplatin] | [Oxaliplatin co-treated with Topotecan] results in increased |

Same assay, conditions: chemical alone

| SMILES | expression of CRYM mRNA |
| --- | --- |
| CCCC=O [butyraldehyde] | butyraldehyde results in increased expression of CRYM |
| Oc1ccc(Cc2ccc(O)cc2)cc1 [bisphenol F] | bisphenol F results in increased expression of CRYM mRNA |
| CCCc1cc(=O)[nH]c(=S)[nH]1 [Propylthiouracil] | Propylthiouracil results in increased expression of CRYM |
| c1ccc2c(c1)ccc1cc3c(ccc4ccccc43)cc12 [1,2,5,6-dibenzanthracene] | 1,2,5,6-dibenzanthracene results in increased expression of |
| O=c1c(O)c(-c2ccc(O)c(O)c2)oc2cc(O)cc(O)c12 [Quercetin] | Quercetin results in increased expression of CRYM mRNA |
| Clc1cnc(Oc2ccc(Oc3ncc(Cl)cc3Cl)cc2)c(Cl)c1 [1,4-bis(2-(3,5-dichloropyridyloxy))benzene] | increased expression of CRYM mRNA |
| O=C1[O][Pt]2([NH][C@@H]3CCCC[C@H]3[NH]2)[O]C1=O [Oxaliplatin] | Oxaliplatin results in increased expression of CRYM mRNA |
| CC[C@@]1(O)C(=O)OCc2c1cc1n(c2=O)Cc2cc3c(CN(C)C)c(O)ccc3nc2-1 [Topotecan] | Topotecan results in increased expression of CRYM mRNA |
| CCO [Ethanol] | Ethanol results in increased expression of CRYM mRNA |
| Nc1ccccc1NC(=O)c1ccc(CNC(=O)OCc2cccnc2)cc1 [entinostat] | entinostat results in increased expression of CRYM mRNA |
| CCC=O [propionaldehyde] | propionaldehyde results in increased expression of CRYM |
| c1ccc2c(c1)cc1ccc3cccc4ccc2c1c34 [Benzo(a)pyrene] | Benzo(a)pyrene results in increased expression of CRYM |
| O=S(=O)(c1ccc(O)cc1)c1ccc(O)cc1 [bis(4-hydroxyphenyl)sulfone] | bis(4-hydroxyphenyl)sulfone results in increased expression |
| CC(N)Cc1ccccc1 (stereo not drawn) [Amphetamine] | Amphetamine results in increased expression of CRYM |
| CNC(=O)O[C@@H](CC(C)C)c1nc([C@H]2OC(=O)/C=C/C/C(C)=C/[C@@H](O)[C@@H](C)\C=C(C)/C=C(C)\C=C\[C@@H](O)[C@H](C)[C@H](OC)/C(C)=C/C=C/[C@@H]2C)cs1 [archazolid B] | archazolid B results in increased expression of CRYM mRNA |
| C=CC=C [1,3-butadiene] | 1,3-butadiene results in increased expression of CRYM |
| Clc1cc2c(cc1Cl)Oc1cc(Cl)c(Cl)cc1O2 [Tetrachlorodibenzodioxin] | Tetrachlorodibenzodioxin results in increased expression of |
| CCCC(CCC)C(=O)O [Valproic Acid] | Valproic Acid results in increased expression of CRYM |
| ClC(Cl)(Cl)Cl [Carbon Tetrachloride] | Carbon Tetrachloride results in increased expression of |
| CC1=C(/C=C/C(C)=C/C=C/C(C)=C/C(=O)Nc2ccc(O)cc2)C(C)(C)CCC1 [Fenretinide] | Fenretinide results in increased expression of CRYM mRNA |
| CCCCOC(=O)c1ccccc1C(=O)OCCCC [Dibutyl Phthalate] | Dibutyl Phthalate results in increased expression of CRYM |
| CC1=C(/C=C/C(C)=C/C=C/C(C)=C/C(=O)O)C(C)(C)CCC1 [Tretinoin] | Tretinoin results in increased expression of CRYM mRNA |
| CN[C@@H](Cc1c[nH]c2ccccc12)C(=O)O [abrine] | abrine results in increased expression of CRYM mRNA |
| CCCCC=O [pentanal] | pentanal results in increased expression of CRYM mRNA |

Test system: CRYM protein
Settings: chemical alone

| SMILES | expression of CRYM protein |
| --- | --- |
| CN[C@@H](C)Cc1ccccc1 [Methamphetamine] | Methamphetamine results in increased expression of CRYM |
| C[C@@H]1Cc2c(Cl)cc(C(=O)N[C@@H](Cc3ccccc3)C(=O)O)c(O)c2C(=O)O1 [ochratoxin A] | ochratoxin A results in increased expression of CRYM protein |

Test system: skeletal muscles (soleus, EDL)
Settings: rats, thyrotoxic doses of T3 and T4

| SMILES | effect on fast twitch extensor digitorum longus (EDL) muscles |
| --- | --- |
| N[C@@H](Cc1cc(I)c(Oc2ccc(O)c(I)c2)c(I)c1)C(=O)O [T3, triiodothyronine] | no effect |
| N[C@@H](Cc1cc(I)c(Oc2cc(I)c(O)c(I)c2)c(I)c1)C(=O)O [T4] | no effect |

Same assay, conditions: rats, thyrotoxic doses of T3 and T4; without accompanying changes in contractile velocity

| SMILES | effect on slow twitch soleus muscle |
| --- | --- |
| N[C@@H](Cc1cc(I)c(Oc2ccc(O)c(I)c2)c(I)c1)C(=O)O [T3, triiodothyronine] | shift in slow twitch soleus muscle from slow to faster characteristics |
| N[C@@H](Cc1cc(I)c(Oc2cc(I)c(O)c(I)c2)c(I)c1)C(=O)O [T4] | shift in slow twitch soleus muscle from slow to faster characteristics |
